Source: patent US10328075B2, “Method of treatment and compounds for use therein” (Baker Heart and Diabetes Institute, priority 2015, dated 2019)
Like-named read-outs stand apart in the source and are kept apart here.

Columns and labels:
hFPR1 = target: T1, hFPR1 (Homo sapiens, UniProt P21462); test: [Ca2+]i mobilization in FlpIn-CHO cells stably expressing hFPR1; type: cell-based; set-up: Calcium Rmax: unit not given here; settings: for Emax: Flp-In-CHO
T1 construct: expressed in transfected cells
T1 sequence (P21462 1-350): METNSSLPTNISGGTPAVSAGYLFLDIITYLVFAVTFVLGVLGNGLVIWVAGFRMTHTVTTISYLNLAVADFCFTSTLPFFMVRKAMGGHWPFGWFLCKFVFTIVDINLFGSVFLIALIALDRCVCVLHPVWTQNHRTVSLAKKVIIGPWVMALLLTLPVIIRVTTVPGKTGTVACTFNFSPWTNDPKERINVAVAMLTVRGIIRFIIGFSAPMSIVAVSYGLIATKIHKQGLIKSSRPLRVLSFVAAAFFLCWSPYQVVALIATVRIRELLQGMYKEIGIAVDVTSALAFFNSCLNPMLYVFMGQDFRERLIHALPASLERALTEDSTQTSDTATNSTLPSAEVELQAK
Source text: (§1) cDNDA construct and generation of stable cell lines: cDNA in pcDNA3.1^+ encoding the human formyl peptide receptors (FPR) subtypes, hFPR1, hFPR2 and hFPR3 was obtained from Invitrogen. The sequences for 3 hFPR receptors were amplified by PCR and cloned into the Gateway entry vector, pDONR202™, using the BP clonase enzyme mix, according to the manufactures' instructions (Invitrogen Inc, Carlsbad, Calif., USA). All hFPR receptors constructs in pDONR201™ were subsequently transfected into the pEF5/FRT/V5/dest vector using the LR clonase enzyme mix (Invitrogen). Receptor constructs (pEF5/FRT/V5/dest) were used to transfect FIp-In CHO cells as described previously (Valant C et al., PNAS, 2014). Cells were selected using 500 μg/mL hydromycin to generate cell lines stably expressing each receptor construct. Cells were maintained and cultured in high glucose DMEM supplemented with 10% FBS, 16 mM HEPES and 500 μg/mL hydromycin at 37° C. under a humidified atmosphere containing 5% CO2.
(§2) In the various assays described below, cells were plated into 96-well transparent cell culture plates at 4×10^4 cells per well, cultured overnight in serum-free media at 37° C. in 5% CO2.
Intracellular calcium mobilization: Intracellular calcium mobilization was assayed as described previously (Keov, P et al., 2014). Briefly, cells were washed once using HEPES buffered saline (HBS) solution [150 mM NaCl, 2.2 mM CaCl2, 2.6 mM KCl, 1.2 mM MgCl2, 10 mM HEPEs, 10 mM D-Glucose, 0.5% (w/v) bovine serum albumin (BSA) and 4 mM probenecid] at pH 7.4, then treated with Fluo-4-AM (1 μM, in HBS/BSA/probenecid) for 60 min at 37° C. in 5% CO2 in the dark. Cells were then further washed and placed in HBS/BSA/probenecid solution for ligation addition and assay using the FLEXstation 3 plate reader (Molecular Devices, Sunnyvale, Calif.). For all experiments, peak change in fluorescence signal was normalized to the cellular response to 100 μM ATP, which was used as an internal positive control.
(§3) Data analysis: All data were analysed using GraphPad Prism 6.0 (GraphPad Software, San Deigo, Calif., USA). Where appropriate, concentration-response curves were fitted to derive the maximal agonist effect (Emax), and the ligand potency estimate (pEC50), where Emax is the maximal possible response of the system (not the agonist), basal is the basal level of response in the absence of agonist, and pEC50 is the negative logarithm of the agonist concentration that gives a response halfway between Emax and basal.
(§4) In the present study, FIp-IN CHO cells and Gateway plasmid were obtained from Invitrogen Inc (Carlsbad, Calif., USA). The sequences for all 3 known human FPRs (hFPR1, hFPR2 and hFPR3) were amplified by PCR and cloned into the Gateway entry vector, pDONR202TM, using the BP clonase enzyme mix, according to the manufacturers' instructions. The hFPR pDONR201TM constructs were subsequently transfected into the pEF5/FRT/V5/dest vector using the LR clonase enzyme mix (Invitrogen). Receptor constructs (pEF5/FRT/V5/dest) were used to transfect FIp-IN CHO cells, as described previously (Valant et al. 2014). Cells were selected using 500 μg/mL hydromycin to generate cell lines stably expressing each human receptor construct. Cells were maintained and cultured in high glucose Dulbecco's modified eagle medium (DMEM) supplemented with 10% fetal bovine serum (FBS, from JRH Biosciences, Lenexa, Kans., USA) and 500 μg/mL hydromycin B (Invitrogen Inc) at 37° C. under a humidified atmosphere containing 5% CO2. Cell were plated into 96-well transparent cell culture plates at 4×10^4 cells per well, cultured overnight in serum-free media at 37° C. in 5% CO2.
(ii) Intracellular Ca2+ mobilization: Intracellular Ca2+ mobilization was determined in stably-transfected recombinant hFPR CHO cells, as described previously (Valant et al. 2014).

hFPR2 = target: T2, hFPR2 (Homo sapiens, UniProt P25090); test: Akt1/2/3 (Ser473) phosphorylation in hFPR2-FlpIn-CHO cells; type: cell-based; settings: for ΔLog(τ/KA), Akt 1/2/3 (Ser473) phosphorylation, hFPR2-Flpln-CHO: normalized transduction coefficient, reference agonist Cmpd43; for Log(τ/KA), Akt 1/2/3 (Ser473) phosphorylation, hFPR2-Flpln-CHO: transduction coefficient
T2 construct: expressed in transfected cells
T2 sequence (P25090 1-351): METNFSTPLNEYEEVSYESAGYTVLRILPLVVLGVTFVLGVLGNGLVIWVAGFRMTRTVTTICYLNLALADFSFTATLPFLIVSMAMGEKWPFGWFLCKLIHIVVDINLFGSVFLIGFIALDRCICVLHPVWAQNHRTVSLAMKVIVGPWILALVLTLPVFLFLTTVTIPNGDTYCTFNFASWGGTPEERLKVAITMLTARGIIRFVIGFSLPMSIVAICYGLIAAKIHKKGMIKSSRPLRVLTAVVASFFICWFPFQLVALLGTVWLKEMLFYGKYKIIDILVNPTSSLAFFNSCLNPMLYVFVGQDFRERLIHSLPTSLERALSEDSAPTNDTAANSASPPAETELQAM
Source text: as §1, §2
Measurement of Akt1/2/3 phosphorylation and Akt 1: The same lysate was used for measurement of Akt1/2/3 phosphorylation (Ser473) and Akt1 (Thr308). Cells were lysed in SureFire lysis buffer and transferred to 384-well opaque proxiplates. Under low-light conditions, a 1:10:40 (v:v:v) dilution of AlphaScreen acceptor beads:Surefire activation buffer:Surefire reaction buffer was prepared and the plate was incubated in the dark at RT for 2 h. Then, a 1:20 (v:v) dilution of AlphaScreen donor beads/dilution was prepared and incubated in the dark at RT for another 2 h, before the fluorescence signal was measured by used of a Fusion-α plate reader (PerkinElmer Life and Analytical Sciences) with standard AlphaScreen settings. Receptor mediated phosphorylation of Akt1/2/3 (Ser473) and Akt1 (Thr308) were determined using the AlphaScreen™ […] SureFire™ kit, as per as per manufacturer's instructions. Data were normalized to the maximal response elicited by 10% (v:v) FBS at the same time point.
as §3, §4

[1] = Table 9, read-out: potency (pEC50) Ca^2+i, hFPR1-FlpInCHO cells in vitro (converted)
[2] = Table 3, percentage of Akt1/2/3 phosphorylation elicited by 10% FBS, read-out: Emax (%), Akt 1/2/3 (Ser473), hFPR2-Flpln-CHO
[3] = Table 8, percent of response elicited by 10% FBS, read-out: Emax, Akt 1/2/3 (Ser473) phosphorylation, hFPR2-Flpln-CHO

| SMILES | EC50 (hFPR1; [1]) [nM] | Calcium Rmax (hFPR1; Table 10, receptor not given, ND = Not detectable) | EC50 (hFPR1; Table 10, receptor not given, ND = Not detectable, read-out: Calcium pEC50 (converted)) [nM] | Emax (hFPR2; [2]) [%] | ΔLog(τ/KA), Akt 1/2/3 (Ser473) phosphorylation, hFPR2-Flpln-CHO (hFPR2; Table 8) | Emax (hFPR2; [3]) [%] | Log(τ/KA), Akt 1/2/3 (Ser473) phosphorylation, hFPR2-Flpln-CHO (hFPR2; Table 8) | Emax (hFPR1; Table 1, percentage of [Ca^2+]i mobilization elicited by ATP, read-out: Emax (%), [Ca^2+]i mobilization, hFPR1-Flpln-CHO) [%] | Emax (hFPR1; Table 8, percent of response elicited by ATP, read-out: Emax, [Ca^2+]i mobilization, hFPR1-Flpln-CHO) [%] | EC50 (hFPR1; Table 1, read-out: pEC50, [Ca^2+]i mobilization, hFPR1-Flpln-CHO (converted)) [nM] | ΔLog(τ/KA), [Ca^2+]i mobilization, hFPR1-Flpln-CHO (hFPR1; Table 8, normalized transduction coefficient, reference agonist Cmpd43) | EC50 (hFPR1; Table 8, read-out: pEC50, [Ca^2+]i mobilization, hFPR1-Flpln-CHO (converted)) [nM] | Log(τ/KA), [Ca^2+]i mobilization, hFPR1-Flpln-CHO (hFPR1; Table 8, transduction coefficient) | EC50 (hFPR2; Table 3, read-out: pEC50, Akt 1/2/3 (Ser473), hFPR2-Flpln-CHO (converted)) [nM] | EC50 (hFPR2; Table 8, read-out: pEC50, Akt 1/2/3 (Ser473) phosphorylation, hFPR2-Flpln-CHO (converted)) [nM] |
| --- | --- | --- | --- | --- | --- | --- | --- | --- | --- | --- | --- | --- | --- | --- | --- |
| Cc1cc(Cc2cccnc2)c(=O)n(CC(=O)Nc2ccc(Cl)cc2)n1 [MIPS-0010396] | 33100 | 22 ± 2 | 33100 |  |  |  |  |  |  |  |  |  |  |  |  |
| CSCC[C@H](NC=O)C(=O)N[C@@H](CC(C)C)C(=O)N[C@@H](Cc1ccccc1)C(=O)O [fMLP, N-formyl-Met-Leu-Phe] |  |  |  | 13 ± 4 | −2.0 ± 0.2 | 20 ± 4 | 4.9 ± 0.2 |  |  |  |  |  |  |  |  |
| CC(C)C1C(NC(=O)Nc2ccc(Cl)cc2)C(=O)N(c2ccccc2)N1C (centres unmarked) [BIDI-002] | 11 |  |  | 30 ± 6 | 0.0 | 30 ± 6 | 6.9 ± 0.4 | 43 ± 6 | 43 ± 6 | 11 | 0.0 | 10 | 8.0 ± 0.2 | 145 | 158 |
